Laboratory results reported in patent US20230085307A1, “PYRIDAZINONE COMPOUND AND HERBICIDE” (NISSAN CHEMICAL CORPORATION, priority 2019, published 2023).

Tests used:
[1] = system: late watergrass; assay: Test Example 1: herbicidal activity, application before weed generation under submerged conditions (Table 16, symbol A); assay type: in vivo, late watergrass (Echinochloa oryzicola); settings: 320 g/ha applied herbicide
Outline: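 Emulsion formulation, water-diluted to set dose, was put onto the flooded surface (4 cm depth, alluvial soil) the same day weeds were sown and 2.5-leaf rice transplanted. After 3 weeks at 25-30 °C under glass, each species was rated 0 (≤5% kill) to 5 (≥90% kill).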

[2] = system: Japanese bulrush; assay: Test Example 2: herbicidal activity, application during weed generation under submerged conditions (Table 17, symbol B); assay type: in vivo, Japanese bulrush (Schoenoplectus juncoides); settings: AAH 320 g/ha; application during weed generation, submerged conditions
Outline: (§1)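 Alluvial soil in Wagner pots was flooded to 4 cm depth and sown with the three weeds together; pots were kept in a greenhouse at 25° C. to 30° C. At the one to two leaf stage, an emulsion formulation diluted in water to a set rate went onto the water surface; scored three weeks later.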

[3] = system: oval-leafed pondweed; assay: Test Example 2: herbicidal activity, application during weed generation under submerged conditions (Table 17, symbol C); assay type: in vivo, oval-leafed pondweed (Monochoria vaginalis); settings: AAH 320 g/ha; application during weed generation, submerged conditions
Outline: as §1

[4] = system: rice flat sedge; assay: Test Example 3: herbicidal effect by foliage application, Wagner pot (Table 18, symbol E); assay type: in vivo, rice flat sedge (Cyperus iria); settings: 320 g/ha
Outline: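 Plants were sown in alluvial soil held under 0.1–0.5 cm standing water and grown 14 days in a greenhouse at 25–30 °C. An emulsifiable formulation, water-diluted to the set dose, was then sprayed onto the foliage, and effects were scored three weeks later using previously defined criteria.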

[5] = system: southern crabgrass; assay: Test Example 4: herbicidal effect by soil treatment (Table 19, symbol F); assay type: in vivo, southern crabgrass (Digitaria ciliaris)
Outline: (§2)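 Step 1: sow seeds in sterilized diluvial soil, cover ~1.5 cm. Step 2: spray diluted emulsion onto soil surface at predetermined rate. Step 3: greenhouse, 25–30° C, three weeks. Step 4: grade effect on each plant by earlier criteria.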

[6] = system: green foxtail; assay: Test Example 4: herbicidal effect by soil treatment (Table 19, symbol G); assay type: in vivo, green foxtail (Setaria viridis)
Outline: as §2

[7] = system: blackgrass; assay: Test Example 4: herbicidal effect by soil treatment (Table 19, symbol J); assay type: in vivo, blackgrass (Alopecurus myosuroides)
Outline: as §2

[8] = system: Italian ryegrass; assay: Test Example 4: herbicidal effect by soil treatment (Table 19, symbol K); assay type: in vivo, Italian ryegrass (Lolium multiflorum)
Outline: as §2

[9] = system: redroot pigweed; assay: Test Example 4: herbicidal effect by soil treatment (Table 19, symbol N); assay type: in vivo, redroot pigweed (Amaranthus retroflexus)
Outline: as §2

[10] = system: chickweed; assay: Test Example 4: herbicidal effect by soil treatment (Table 19, symbol P); assay type: in vivo, common chickweed (Stellaria media)
Outline: as §2

[11] = system: southern crabgrass; assay: Test Example 5: herbicidal effect by foliage application, plastic box (Table 20, symbol F); assay type: in vivo, southern crabgrass (Digitaria ciliaris); settings: foliage application, 320 g/ha, 3 weeks after application
Outline: (§3)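 Foliar spray test: emulsion formulation diluted in water to a set application rate, sprayed onto 14-day-old plants raised in diluvial soil at 25° C to 30° C under glass. Both herbicidal effect and crop effect rated visually three weeks later.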

[12] = system: green foxtail; assay: Test Example 5: herbicidal effect by foliage application, plastic box (Table 20, symbol G); assay type: in vivo, green foxtail (Setaria viridis); settings: foliage application, 320 g/ha, 3 weeks after application
Outline: as §3

[13] = system: wild oat; assay: Test Example 5: herbicidal effect by foliage application, plastic box (Table 20, symbol I); assay type: in vivo, wild oat (Avena fatua); settings: foliage application, 320 g/ha, 3 weeks after application
Outline: as §3

[14] = system: windgrass; assay: Test Example 5: herbicidal effect by foliage application, plastic box (Table 20, symbol L); assay type: in vivo, windgrass (Apera spica-venti); settings: foliage application, 320 g/ha, 3 weeks after application
Outline: as §3

[15] = system: persian speedwell; assay: Test Example 5: herbicidal effect by foliage application, plastic box (Table 20, symbol R); assay type: in vivo, Persian speedwell (Veronica persica); settings: foliage application, 320 g/ha, 3 weeks after application
Outline: as §3

## Cc1nn(C)c(=O)c(-c2c(-c3ccc(F)cc3)sc3ccc(F)cc23)c1O [2-001]
[1]
  Herbicidal effect on A: late watergrass (grade 0-5): 2 (Herbicidal rate of 20% or more and less than 40%)
[2]
  herbicidal effect rating, B: Japanese bulrush: 2 (Herbicidal rate of 20% or more and less than 40%)
[3]
  herbicidal effect rating, C: oval-leafed pondweed: 3 (Herbicidal rate of 40% or more and less than 70%)
[4]
  herbicidal effect on E (rice flat sedge), rating 0-5: 5 (Herbicidal rate of 90% or more (almost completely withered))
[5]; AAH 320 g/ha
  F: southern crabgrass, herbicidal effect rating: 5 (Herbicidal rate of 90% or more (almost completely withered))
[6]; AAH 320 g/ha
  G: green foxtail, herbicidal effect rating: 4 (Herbicidal rate of 70% or more and less than 90%)
[7]; AAH 320 g/ha
  J: blackgrass, herbicidal effect rating: 2 (Herbicidal rate of 20% or more and less than 40%)
[8]; AAH 320 g/ha
  K: Italian ryegrass, herbicidal effect rating: 4 (Herbicidal rate of 70% or more and less than 90%)
[9]; AAH 320 g/ha
  N: redroot pigweed, herbicidal effect rating: 5 (Herbicidal rate of 90% or more (almost completely withered))
[10]; AAH 320 g/ha
  P: chickweed, herbicidal effect rating: 4 (Herbicidal rate of 70% or more and less than 90%)
[11]
  effect on southern crabgrass (F): 5 (Herbicidal rate of 90% or more (almost completely withered))
[12]
  effect on green foxtail (G): 5 (Herbicidal rate of 90% or more (almost completely withered))
[13]
  effect on wild oat (I): 5 (Herbicidal rate of 90% or more (almost completely withered))
[14]
  effect on windgrass (L): 4 (Herbicidal rate of 70% or more and less than 90%)
[15]
  effect on persian speedwell (R): 5 (Herbicidal rate of 90% or more (almost completely withered))

## CCCC(=O)Oc1c(C)nn(C)c(=O)c1-c1c(-c2ccccc2OC(F)(F)F)sc2ccc(F)cc12 [2-044]
[1]
  Herbicidal effect on A: late watergrass (grade 0-5): 3 (Herbicidal rate of 40% or more and less than 70%)
[2]
  herbicidal effect rating, B: Japanese bulrush: 3 (Herbicidal rate of 40% or more and less than 70%)
[3]
  herbicidal effect rating, C: oval-leafed pondweed: 3 (Herbicidal rate of 40% or more and less than 70%)
[4]
  herbicidal effect on E (rice flat sedge), rating 0-5: 5 (Herbicidal rate of 90% or more (almost completely withered))
[5]; 320 g/ha
  herbicidal effect rating, F: southern crabgrass: 3 (Herbicidal rate of 40% or more and less than 70%)
[6]; 320 g/ha
  herbicidal effect rating, G: green foxtail: 4 (Herbicidal rate of 70% or more and less than 90%)
[7]; 320 g/ha
  herbicidal effect rating, J: blackgrass: 0 (Herbicidal rate of 5% or less (almost no effect))
[8]; 320 g/ha
  herbicidal effect rating, K: Italian ryegrass: 0 (Herbicidal rate of 5% or less (almost no effect))
[9]; 320 g/ha
  herbicidal effect rating, N: redroot pigweed: 5 (Herbicidal rate of 90% or more (almost completely withered))
[10]; 320 g/ha
  herbicidal effect rating, P: chickweed: 3 (Herbicidal rate of 40% or more and less than 70%)
[11]
  effect on southern crabgrass (F): 4 (Herbicidal rate of 70% or more and less than 90%)
[12]
  effect on green foxtail (G): 5 (Herbicidal rate of 90% or more (almost completely withered))
[13]
  effect on wild oat (I): 3 (Herbicidal rate of 40% or more and less than 70%)
[14]
  effect on windgrass (L): 4 (Herbicidal rate of 70% or more and less than 90%)
[15]
  effect on persian speedwell (R): 5 (Herbicidal rate of 90% or more (almost completely withered))
